Values quoted from earlier work, collected in patent US20190192601A1, “EXTRACTS OF CYCLANTHERA PEDATA AND FORMULATIONS AND USES THEREOF” (priority 2014, published 2019).

Columns and labels:
[1] = system: patients
[2] = in vivo

Row | Molecule | lower risk of heart disease ([1]; supplementation with 30 IU to 100 IU) | progression of coronary artery disease ([1]; supplementation with 100 IU) | plasma lipid levels [2]
1 | vitamin E | 41% | reduced progression | 
2 | O=C(CCCN1CCN(c2ccc(F)cc2)CC1)NC1c2ccccc2CSc2ccccc21 (stereo not drawn) [Monatepil] |  |  | found to reduce
